Test results as given in patent publication US20260078158A1, “COMPOSITIONS COMPRISING CXCL10-DERIVED PEPTIDES AND METHODS OF USE THEREOF” (priority 2022, published 2026).
Several values for one entry are separate records, joined by “and”; a condition that tells them apart may be missing. Equal entries are not always repeated. Where two headings read alike, the source gives them in different places.

What was measured:
[1] = tested on: Enterococcus faecalis; assay: microbe, parasite or virus in culture; format: cell-based; details: acetate formulation, in µg/mL
[2] = tested on: Enterococcus faecium; assay: microbe, parasite or virus in culture; format: cell-based; details: acetate formulation
[3] = tested on: Acinetobacter baumannii-calcoaceticus complex; assay: microbe, parasite or virus in culture; format: cell-based; details: acetate formulation
[4] = tested on: Escherichia coli; assay: microbe, parasite or virus in culture; format: cell-based; details: acetate formulation
[5] = tested on: E. cloacae species complex; assay: microbe, parasite or virus in culture; format: cell-based, Enterobacter cloacae; details: acetate formulation
[6] = tested on: Pseudomonas aeruginosa; assay: microbe, parasite or virus in culture; format: cell-based; details: acetate formulation, in µg/mL
[7] = tested on: Streptococcus pneumoniae; assay: microbe, parasite or virus in culture; format: cell-based; details: acetate formulation, in µg/mL
[8] = tested on: Staphylococcus aureus; assay: microbe, parasite or virus in culture; format: cell-based; details: acetate formulation, in µg/mL
[9] = tested on: Klebsiella pneumoniae; set-up: MIC: unit not given beside the values; details: strain ATCC 43816, sponsor, acetate formulation

Work on RYVRCRCI [Peptide P194] yielded an MIC ([1]; strain 1204777, VRE, replicate R1) of 4, an MIC ([1]; strain 1204777, VRE, replicate R2) of 2 and an MIC ([1]; strain 1211589, VRE, replicate R1) of 4. It also gave an MIC ([1]; strain 1211589, VRE, replicate R2) of 2, an MIC ([1]; strain ATCC 29212, QC, replicate R1) of 4 and an MIC ([1]; strain ATCC 29212, QC, replicate R2) of 4. The MIC ([2]; strain 1196024, VRE, replicate R1) was 2 µg/mL, the MIC ([2]; strain 1196024, VRE, replicate R2) was 2 µg/mL and the MIC ([2]; strain 1208412, VRE, replicate R1) was 2 µg/mL. It also gave an MIC ([2]; strain 1208412, VRE, replicate R2) of 1 µg/mL, an MIC ([2]; strain 1222807, VSE, replicate R1) of 2 µg/mL and an MIC ([2]; strain 1222807, VSE, replicate R2) of 1 µg/mL. For the same sequence, the MIC ([3]; strain 1204424, non-MDR, replicate R1) was 8 µg/mL, the MIC ([3]; strain 1204424, non-MDR, replicate R2) was 8 µg/mL and the MIC ([3]; strain 1208060, non-MDR, replicate R1) was 8 µg/mL. The MIC ([3]; strain 1208060, non-MDR, replicate R2) was 4 µg/mL, the MIC ([3]; strain 1215088, MDR, replicate R1) was 8 µg/mL and the MIC ([3]; strain 1215088, MDR, replicate R2) was 4 µg/mL. The MIC ([3]; strain 1215098, MDR, replicate R1) was 16 µg/mL, the MIC ([3]; strain 1215098, MDR, replicate R2) was 8 µg/mL and the MIC ([3]; strain 1216520, non-MDR, replicate R1) was 8 µg/mL. For the same sequence, the MIC ([3]; strain 1216520, non-MDR, replicate R2) was 4 µg/mL, the MIC ([4]; strain 1191008, MDR, ESBL, replicate R1) was 8 µg/mL and the MIC ([4]; strain 1191008, MDR, ESBL, replicate R2) was 8 µg/mL. The MIC ([4]; strain 1231795, MDR, ESBL, replicate R1) was 8 µg/mL, the MIC ([4]; strain 1231795, MDR, ESBL, replicate R2) was 8 µg/mL and the MIC ([4]; strain 1232428, MDR (COL-R), ESBL, replicate R1) was 16 µg/mL. For the same sequence, the MIC ([4]; strain 1232428, MDR (COL-R), ESBL, replicate R2) was 8 µg/mL, the MIC ([4]; strain 1248389, ESBL, replicate R1) was 8 µg/mL and the MIC ([4]; strain 1248389, ESBL, replicate R2) was 8 µg/mL. The MIC ([4]; strain ATCC 25922, QC, replicate R1) was 8 (3×) and 4, the MIC ([4]; strain ATCC 25922, QC, replicate R2) was 4 and 8 (2×) and the MIC ([4]; strain ATCC BAA-2452, NDM-1, replicate R1) was 8 µg/mL. It also gave an MIC ([4]; strain ATCC BAA-2452, NDM-1, replicate R2) of 4 µg/mL, an MIC ([5]; Enterobacter cloacae strain 1230117, non-MDR, replicate R1) of 8 µg/mL and an MIC ([5]; Enterobacter cloacae strain 1230117, non-MDR, replicate R2) of 8 µg/mL. The MIC ([5]; strain 1197959, non-MDR, replicate R1) was 16 µg/mL, the MIC ([5]; strain 1197959, non-MDR, replicate R2) was 16 µg/mL and the MIC ([5]; strain 1204419, non-MDR, replicate R1) was 16 µg/mL. For the same sequence, the MIC ([5]; strain 1204419, non-MDR, replicate R2) was 16 µg/mL, the MIC ([5]; strain 1230601, non-MDR, replicate R1) was 16 µg/mL and the MIC ([5]; strain 1230601, non-MDR, replicate R2) was 8 µg/mL. It also gave an MIC ([5]; strain 1232701, MDR, replicate R1) of 16 µg/mL, an MIC ([5]; strain 1232701, MDR, replicate R2) of 16 µg/mL and an MIC ([6]; strain 1190985, non-MDR, replicate R1) of 32. It also gave an MIC ([6]; strain 1190985, non-MDR, replicate R2) of 32, an MIC ([6]; strain 1202638, MDR, replicate R1) of 32 and an MIC ([6]; strain 1202638, MDR, replicate R2) of 32. It also gave an MIC ([6]; strain 1210081, non-MDR, replicate R1) of 32, an MIC ([6]; strain 1210081, non-MDR, replicate R2) of 32 and an MIC ([6]; strain 1242554, non-MDR, replicate R1) of 32. The MIC ([6]; strain 1242554, non-MDR, replicate R2) was 16, the MIC ([6]; strain 1263496, MDR, replicate R1) was 16 and the MIC ([6]; strain 1263496, MDR, replicate R2) was 8. For the same sequence, the MIC ([6]; strain ATCC 27853, QC, replicate R1) was 16, the MIC ([6]; strain ATCC 27853, QC, replicate R2) was 8 and the MIC ([7]; strain 1200385, PEN-S, replicate R1) was 32. For the same sequence, the MIC ([7]; strain 1200385, PEN-S, replicate R2) was 32, the MIC ([7]; strain 1219456, PEN-R, replicate R1) was 32 and the MIC ([7]; strain 1219456, PEN-R, replicate R2) was 32. The MIC ([7]; strain 1219876, PEN-R, replicate R1) was 32, the MIC ([7]; strain 1219876, PEN-R, replicate R2) was 32 and the MIC ([7]; strain 1223661, PEN-R, replicate R1) was 32. For the same sequence, the MIC ([7]; strain 1223661, PEN-R, replicate R2) was 32, the MIC ([7]; strain 1227224, PEN-S, replicate R1) was 16 and the MIC ([7]; strain 1227224, PEN-S, replicate R2) was 32. The MIC ([7]; strain ATCC 49619, QC, replicate R1) was 16, the MIC ([7]; strain ATCC 49619, QC, replicate R2) was 16 and the MIC ([8]; strain 1124691, MRSA (USA300)/MDR, replicate R1) was 32. The MIC ([8]; strain 1182822, replicate R2) was 32, the MIC ([8]; strain 1189667, MRSA/MDR, replicate R1) was 32 and the MIC ([8]; strain 1189667, MRSA/MDR, replicate R2) was 16. For the same sequence, the MIC ([8]; strain 1189809, MRSA/MDR, replicate R1) was 32, the MIC ([8]; strain 1189809, MRSA/MDR, replicate R2) was 32 and the MIC ([8]; strain 1190388, MRSA, replicate R1) was 32. The MIC ([8]; strain 1190388, MRSA, replicate R2) was 16, the MIC ([8]; strain 1221979, MRSA, replicate R1) was 32 and the MIC ([8]; strain 1221979, MRSA, replicate R2) was 32. For the same sequence, the MIC ([8]; strain ATCC 29213, QC, replicate R1) was 32, the MIC ([8]; strain ATCC 29213, QC, replicate R2) was 32 and the MIC ([9]; replicate R1) was 8 (3×) and 4. The MIC ([9]; replicate R2) was 8 and 4 (2×).
